Experimental data: ChEMBL document CHEMBL1201862, “PubChem BioAssay data set” (2004)
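Test compounds were applied to cells in 96-well plates for 48 hours at 5 doses. At the GI50, growth is halved.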 The source made the active and inactive calls. Rule as the data show it: active = GI50 up to about 1.1 µM and inactive = higher.

How the values were obtained:
Experiment in all cases: DTP human tumour cell line panel, 48 h
[1] = system: ACHN
[2] = system: RXF 393
[3] = system: UACC-62
[4] = system: SF-268
[5] = system: HOP-62
[6] = system: SF-539
[7] = system: LOX IMVI
[8] = system: SK-MEL-2
[9] = system: OVCAR-5
[10] = system: SK-MEL-5
[11] = system: Hs-578T
[12] = system: PC-3
[13] = system: NCI/ADR-RES
[14] = system: HCC 2998
[15] = system: A498
[16] = system: OVCAR-8
[17] = system: NCI-H23
[18] = system: SW-620
[19] = system: DU-145

Measured: GI50

COC(=O)C(=O)C(C(=O)C(=O)Nc1ccccc1C(C)=O)c1nc2ccc(C(=O)c3ccccc3)cc2nc1O (stereo not given)
inactive: [1] 73.8 µM | [2] 51.5 µM | [3] > 100 µM | [4] 68.2 µM | [5] 45.2 µM | [6] 76.7 µM | [7] > 100 µM | [8] > 100 µM | [9] > 100 µM | [10] 62.8 µM | [11] 47.2 µM | [12] 44 µM | [13] 30.6 µM | [14] 78.3 µM | [15] > 100 µM | [16] 39.6 µM | [17] 35.2 µM

CC1(C)CSCC(C)(C)C(=N/N)/C1=N\N
inactive: [1] > 100 µM | [3] > 100 µM | [18] > 100 µM | [4] > 100 µM | [5] > 100 µM | [6] > 100 µM | [19] > 100 µM | [7] > 100 µM | [8] > 100 µM | [9] > 100 µM | [10] > 100 µM | [12] > 100 µM | [13] > 100 µM | [14] > 100 µM | [15] > 100 µM | [16] > 100 µM | [17] > 100 µM

S=C1Nc2ccccc2SC1c1ccccc1 (stereo not given)
inactive: [1] 69.3 µM | [2] 16.6 µM | [3] > 100 µM | [4] 30.3 µM | [5] 24.8 µM | [19] > 100 µM | [7] 49.7 µM | [9] > 100 µM | [10] > 100 µM | [11] 19.9 µM | [12] 57.9 µM | [13] 56.1 µM | [16] > 100 µM | [17] 74.6 µM

O=C1c2cccnc2S(=O)(=O)N1c1ccc(Br)cc1
inactive: [2] > 100 µM | [3] > 100 µM | [18] > 100 µM | [4] > 100 µM | [5] > 100 µM | [19] > 100 µM | [7] > 100 µM | [8] > 100 µM | [9] > 100 µM | [10] > 100 µM | [11] > 100 µM | [12] 72.4 µM | [13] > 100 µM | [15] > 100 µM | [16] > 100 µM | [17] > 100 µM

CC(C)CC1N=C(OCc2ccccc2)OC1=O (stereo not given)
inactive: [1] > 100 µM | [2] > 100 µM | [18] > 100 µM | [4] 2.79 µM | [5] > 100 µM | [6] > 100 µM | [19] > 100 µM | [7] > 100 µM | [8] > 100 µM | [9] > 100 µM | [10] 45.7 µM | [11] > 100 µM | [12] > 100 µM | [13] > 100 µM | [15] > 100 µM | [16] > 100 µM | [17] > 100 µM

O=c1[nH]nc(Cc2ccc(Cl)cc2)n1/N=C/c1ccco1
inactive: [1] > 100 µM | [2] 26.5 µM | [3] 74 µM | [18] > 100 µM | [4] 38.3 µM | [5] 48.6 µM | [6] 27.4 µM | [19] > 100 µM | [8] 40.1 µM | [9] > 100 µM | [12] > 100 µM | [13] 96.8 µM | [14] > 100 µM | [15] > 100 µM | [16] 66.5 µM | [17] 34.8 µM

CC(=O)/C(=C/n1c(=S)sc2ccccc21)C(=O)Nc1ccccc1C
inactive: [1] > 100 µM | [2] > 100 µM | [3] > 100 µM | [18] > 100 µM | [4] > 100 µM | [5] > 100 µM | [6] > 100 µM | [19] > 100 µM | [7] > 100 µM | [8] > 100 µM | [9] > 100 µM | [10] 39.7 µM | [13] > 100 µM | [14] > 100 µM | [15] > 100 µM | [16] > 100 µM | [17] > 100 µM

Cc1ccc(-n2nnc3c(NNc4ccccc4)n[nH]c(=O)c32)cc1
inactive: [1] > 100 µM | [4] > 10 µM | [5] 66.2 µM | [6] > 100 µM | [19] > 100 µM | [7] > 100 µM | [8] 67.5 µM | [9] > 100 µM | [10] 43.1 µM | [12] 78.2 µM | [13] 76.7 µM | [14] > 100 µM | [16] 49.8 µM | [17] 72.1 µM

O=C1CN(c2cccc(C(F)(F)F)c2)C(=O)CN1NCNN1CC(=O)N(c2cccc(C(F)(F)F)c2)CC1=O
inactive: [1] > 100 µM | [18] > 100 µM | [4] > 100 µM | [5] > 100 µM | [6] > 100 µM | [9] > 100 µM | [10] > 100 µM | [11] > 100 µM | [12] > 100 µM | [13] > 100 µM | [14] > 100 µM | [16] > 100 µM

CN(C)CCn1c(=O)oc2cc(C(=O)CN3CCOCC3)ccc21
inactive: [1] > 100 µM | [2] > 100 µM | [3] > 100 µM | [18] > 100 µM | [4] > 100 µM | [5] > 100 µM | [6] > 100 µM | [19] > 100 µM | [7] > 100 µM | [8] > 100 µM | [9] > 100 µM | [10] > 100 µM | [11] > 100 µM | [12] > 100 µM | [13] > 100 µM | [16] > 100 µM | [17] > 100 µM

C1=N\CCN2CCN(CC/N=C\c3ccc(cc3)OCc3cccc(n3)COc3ccc/1cc3)CC2
inactive: [1] > 50 µM | [2] 11.6 µM | [3] > 50 µM | [18] > 50 µM | [4] > 50 µM | [5] > 50 µM | [6] > 50 µM | [19] > 50 µM | [8] > 50 µM | [9] > 50 µM | [11] 32.7 µM | [12] > 50 µM | [13] > 50 µM | [15] > 50 µM | [16] > 50 µM | [17] > 50 µM

O=C(N/N=C/c1ccccc1)c1c(-c2cccnc2)cnc2ccccc12
inactive: [1] > 100 µM | [2] > 100 µM | [3] 79.8 µM | [18] 59.6 µM | [4] > 100 µM | [5] 87.7 µM | [6] 70.3 µM | [19] > 100 µM | [8] > 100 µM | [9] > 100 µM | [10] 43.7 µM | [12] > 100 µM | [13] 69.5 µM | [14] > 100 µM | [16] > 100 µM | [17] > 100 µM

Cc1ccc2c(n1)NC(=O)C(Cc1ccccc1)(N=[N+]=[N-])C2=O (stereo not given)
inactive: [1] > 100 µM | [2] > 100 µM | [3] > 100 µM | [18] > 100 µM | [4] > 100 µM | [5] > 100 µM | [6] > 100 µM | [19] > 100 µM | [9] > 100 µM | [12] > 100 µM | [13] > 100 µM | [14] > 100 µM | [15] > 100 µM | [16] > 100 µM | [17] > 100 µM

N#Cc1c(-c2ccc([N+](=O)[O-])cc2)cc(-c2ccc(Nc3ccnc4cc(Cl)ccc34)cc2)[nH]c1=O
inactive: [1] > 100 µM | [2] > 100 µM | [3] > 100 µM | [18] > 100 µM | [4] > 100 µM | [5] 67.3 µM | [6] > 100 µM | [19] > 100 µM | [7] > 100 µM | [8] > 100 µM | [9] > 100 µM | [12] > 100 µM | [13] > 100 µM | [14] > 100 µM | [15] > 100 µM | [16] > 100 µM | [17] 93.3 µM

CCSC12CC3c4cccc5c4C(CN5C(=O)c4ccccc4)CC3(O1)N(C)C2=O (stereo not given)
inactive: [1] 33.6 µM | [2] 71.1 µM | [3] 22.5 µM | [18] 75.5 µM | [4] 42.7 µM | [6] 26.9 µM | [19] 51.8 µM | [7] 31.3 µM | [8] 40.3 µM | [9] 83 µM | [10] 14.7 µM | [11] 46.3 µM | [12] 22.9 µM | [13] 29 µM | [15] 32.1 µM | [16] 31.5 µM | [17] 24.7 µM

COC(=O)C1=C(O)C(O)=C(C(=O)OC)CC1
inactive: [1] > 100 µM | [2] 17.9 µM | [3] > 100 µM | [18] > 100 µM | [4] > 100 µM | [5] > 100 µM | [6] > 100 µM | [7] > 100 µM | [8] > 100 µM | [9] > 100 µM | [10] > 100 µM | [14] > 100 µM | [15] > 100 µM | [16] > 100 µM | [17] > 100 µM

C[n+]1c(-c2ccc(/C=N/NC(=S)N/N=C/c3ccc(-c4cn5ccsc5[n+]4C)cc3)cc2)cn2ccsc21
inactive: [1] > 100 µM | [18] > 100 µM | [4] > 100 µM | [5] > 100 µM | [6] > 100 µM | [9] > 100 µM | [10] > 100 µM | [11] > 100 µM | [12] > 100 µM | [13] > 100 µM | [14] > 100 µM | [16] > 100 µM
